# Data from patent US20160000750A1, “COMBINATION OF EGCG OR METHYLATED EGCG AND A PDE INHIBITOR” (KYUSHU UNIVERSITY, NATIONAL UNIVERSITY CORPORATION, priority 2010, published 2016).
# Tested on: human multiple myeloma cell line, U266
# Test: Apoptosis induction by Annexin V PI double staining, U266
# Type: cell-based
# Settings: vardenafil 5 μM, EGCG 5 μM, 96 hours
# Protocol: A propidium iodide (PI) staining solution was prepared by suspending PI (Sigma Corporation) in PBS at a concentration of 50 μg/mL and was used in investigation of the anti-cancer activity of a combination of EGCG and vardenafil by Annexin V PI double staining. The PBS used was prepared by dissolving 8.0 g of NaCl, 0.2 g of KCl, 1.15 g of Na2HPO4, and 0.2 g of KH2PO4 in 1 L of ultrapure water, followed by autoclave sterilization. The Annexin V Binding Buffer used was prepared with 10 mM HEPES, 140 mM NaCl, and 2.5 mM CaCl2 (Wako Pure Chemical Industries, Ltd.) to be pH 7.4, followed by filter sterilization.
# Cell lines, U266 and HL60, adjusted to be 5×10^4 cells/mL (U266) and 1×10^4 cells/mL (HL60), respectively, in an RPMI 1640 medium supplemented with 1% FCS were seeded in a 96-well plate. […]
# The plate was returned to the incubator immediately after the addition of EGCG, followed by culturing for 96 hours. […] The supernatant was removed, and the cells were suspended in an Annexin V Binding uffer, and the number of the cells was counted with a hemocytometer. […] Subsequently, 400 μL of an Annexin V Binding Buffer was added thereto from above, and the cells were counted with a flow cytometer, FACS Caliber (Becton, Dickinson and Company). After compensation, the Annexin V Alexa Fluor 488 Conjugate was measured at FL 1, and the cells deemed to be positive were determined as apoptotic cells. […]
substance,measurement,setting,value
(−)-epigallocatechin-3-O-gallate [EGCG],apoptosis-inducing activity (apoptotic cell ratio),Annexin V PI double staining,apoptosis was induced
same,apoptosis-inducing activity under treatment with anti-67LR antibody,anti-67LR antibody MLuc5 20 μg/mL,completely cancelled
